The conditions of data set [1]: as observed in WO 2010/114928 and WO 2010/129570; cited from earlier work.
A short description of data set [2]: Solubility. In kind it is physicochemical.
A short description of data set [3]: Storage stability of the crystalline form at controlled temperature and relative humidity. It counts as physicochemical. To be noted: up to at least 24 weeks, hydrochloride. An excerpt:
Particularly, crystalline Vemurafenib HCl form II has high chemical purity and excellent stability properties. […] Therefore, the crystalline Vemurafenib HCl form II may be used to prepare an oral formulation which is stable and has a relatively small tablet or capsule size as the molar ratio of Vemurafenib to HCl is about 1:1, which is highly advantageous for preparing pharmaceutical compositions with high drug load.

For data set [4] the following is noted: conditions not given; cited from earlier work.
The mark [5] stands for this setting: 25° C. and 60% relative humidity (RH).

Counter-ions that a name gives are not always drawn. Like-named read-outs stand apart in the source and are kept apart here.

Turning to `CCCS(=O)(=O)Nc1ccc(F)c(C(=O)c2c[nH]c3ncc(-c4ccc(Cl)cc4)cc23)c1F` [Vemurafenib, propane-1-sulfonic acid {3-[5-(4-chlorophenyl)-1H-pyrrolo[2,3-b]pyridine-3-carbonyl]-2,4-difluoro-phenyl}-amide], the solubility entry in data set [1] is listed as “extremely low solubility”.

For the compound `CCCS(=O)(=O)Nc1ccc(F)c(C(=O)c2c[nH]c3ncc(-c4ccc(Cl)cc4)cc23)c1F` [crystalline Vemurafenib HCl form II, Vemurafenib hydrochloride], in data set [2], the solubility entry was “good solubility”. The stability upon storage result in data set [3] (setting [5]) and in data set [3] (30° C./65% RH) was “stable” each time.

Take `CCCS(=O)(=O)Nc1ccc(F)c(C(=O)c2c[nH]c3ncc(-c4ccc(Cl)cc4)cc23)c1F` [crystalline Vemurafenib HCl form I, Vemurafenib hydrochloride]: the stability upon storage result in data set [3] (setting [5]) and in data set [3] (30° C./65% RH) was “converts to Vemurafenib free base” in each case.

`CCCS(=O)(=O)Nc1ccc(F)c(C(=O)c2c[nH]c3ncc(-c4ccc(Cl)cc4)cc23)c1F` [Amorphous Vemurafenib]: the “stability of amorphous form” value in data set [4] is reported as “not stable”.

Source of the values: patent US9440971B2, “Solid state forms of vemurafenib hydrochloride” (ratiopharm GmbH, priority 2013, dated 2016).
